Data published in PubChem BioAssay (NCI).
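Compound exposure: 48 hours, 5 concentrations, 96-well plates. TGI is the concentration that stops growth completely.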

How the values were obtained:
Assay in all cases: NCI-60 cell line screen, 48 h
[1] = tested on: A498 renal
[2] = tested on: COLO 205 colon
[3] = tested on: HCT-116 colon
[4] = tested on: K-562 leukemia
[5] = tested on: KM12 colon
[6] = tested on: MCF7 breast
[7] = tested on: MDA-MB-231 breast
[8] = tested on: MDA-N
[9] = tested on: NCI-H522 lung
[10] = tested on: OVCAR-4 ovarian
[11] = tested on: OVCAR-8 ovarian
[12] = tested on: RPMI-8226 leukemia
[13] = tested on: RXF 393 renal
[14] = tested on: SF-268 CNS
[15] = tested on: SF-539 CNS
[16] = tested on: SK-MEL-28 melanoma
[17] = tested on: SK-OV-3 ovarian
[18] = tested on: SN12C renal
[19] = tested on: SNB-19 CNS
[20] = tested on: UACC-257 melanoma

| SMILES | TGI [1] [µM] | TGI [2] [µM] | TGI [3] [µM] | TGI [4] [µM] | TGI [5] [µM] | TGI [6] [µM] | TGI [7] [µM] | TGI [8] [µM] | TGI [9] [µM] | TGI [10] [µM] | TGI [11] [µM] | TGI [12] [µM] | TGI [13] [µM] | TGI [14] [µM] | TGI [15] [µM] | TGI [16] [µM] | TGI [17] [µM] | TGI [18] [µM] | TGI [19] [µM] | TGI [20] [µM] |
| --- | --- | --- | --- | --- | --- | --- | --- | --- | --- | --- | --- | --- | --- | --- | --- | --- | --- | --- | --- | --- |
| CC(=O)Nc1ccc2c3c(cc(O)c2c1)N(C(=O)CCCCC(=O)N1CC(CCl)c2c1cc(O)c1cc(NC(C)=O)ccc21)CC3CCl (centres undefined) | 0.39 | 0.376 | > 100 | > 100 | 14 | 0.264 | 0.733 | 0.566 | 0.545 | > 27.7 | > 32.4 | 0.635 | 0.41 | 2.77 | 1.34 | > 33.3 | > 64.5 | 6.4 | 5.02 |  |
| C=C1C(=O)O[C@H]2C1C[C@@H](O)/C(C)=C/CC[C@@]1(C)O[C@H]21 (some centres undefined) | 63.1 | > 36.9 | 23.6 | 28.8 | > 100 | 35 | 44.8 | > 50.9 | 15.1 | > 43.4 | 45.1 | 25.8 | 26.5 | > 100 | 54.3 | 33.7 | > 82.7 | > 55.9 | > 100 | 46.8 |
| COc1cc2cc(C(=O)N3CC(CCl)c4ccc([N+](C)(C)Cc5ccc([N+](=O)[O-])cc5)cc43)[nH]c2c(OC)c1OC (centres undefined) | 3.5 | 14.2 |  | 5.61 | 5.46 | > 100 | 46.6 | 16.5 | 3.47 | 13.6 | 4.69 | 4.62 | 3.09 | 56.7 | 5.64 | 26.5 | 9.64 | 31 | 60 |  |
| Cc1cccc(NC(=O)O/N=C(\Cl)C(C)C)c1 | 34.4 | 3.76 | 11.4 | > 100 | 36 | 28 | 33.4 | 25 | 2.99 | 29.4 | 34.2 | 10.5 | 26.9 | 38 | 20.3 | 26.7 | 31.7 | 10.3 | 38.9 | 31.5 |
| C=C(Cl)/C(=C\Cl)CCC(Cl)C(C)C (centres undefined) | > 100 | > 100 | > 100 | > 100 | > 100 | > 100 | > 100 | > 100 | > 100 | > 100 |  | > 100 | > 100 | > 100 | > 100 | > 100 | > 100 | > 100 | > 100 | > 100 |
| CNCCCNC(=S)Cn1cc(C)c(=O)[nH]c1=O | > 74.8 | > 69.9 | > 68 | > 100 | > 78.8 | > 92.5 | > 100 | > 100 | > 100 | > 100 | > 100 | > 100 | > 95.5 | > 100 | > 60.9 | > 75.4 | > 85.7 | > 100 | > 100 | > 59.4 |
| Cc1cc(S(=O)(=O)Nc2nnc3c4ccccc4cnn23)c(S)cc1Cl | > 100 | > 100 | > 100 | > 100 | > 100 | > 100 | > 100 | > 100 | > 100 | > 100 | > 100 | > 100 | > 100 | > 100 | > 95 | > 100 | > 92.7 | > 100 | > 88.9 | > 100 |
| c1ccc2c(c1)nn1c3ccc4nonc4c3[n-][n+]21 | > 100 | > 100 | > 100 | > 100 | > 100 | > 100 | > 100 | > 100 | > 100 | > 100 | > 100 | > 100 | > 100 |  | > 100 | > 100 |  | > 100 | > 100 | > 100 |
| CN(CCNC(=O)c1c[nH]c2c1ccc1ccccc12)CCNC(=O)c1c[nH]c2c1ccc1ccccc12 | 8.47 | 3.24 | 3.39 | 3.31 | 3.29 | 2.74 | 3.2 | 5.63 | 3.45 | 11.7 | 3.91 | 15.6 | 2.62 | 11.6 | 3.39 | 4.16 | 18.4 | 11.7 | 6.23 | 3.94 |
| CC1=NN(c2nc(N)nc(CSc3cc(Cl)c(C)cc3S(N)(=O)=O)n2)C(C)(C)C1 | > 10 | > 10 | > 10 | > 10 | > 10 | > 10 | > 10 | > 10 | > 10 | > 10 | > 10 | > 10 | > 10 | > 10 | > 10 | > 10 | > 10 | > 10 | > 10 | > 10 |
| O=C1C[C@H](COCc2ccccc2)NC(=O)C[C@H](COCc2ccccc2)NC(=O)C[C@H](COCc2ccccc2)N1 | 42 | > 100 | > 100 | > 100 | > 100 | > 100 | 85.2 | > 100 | > 100 | > 100 | > 100 | > 100 | 27.1 | > 100 | 75.1 | > 100 | 57.3 | > 100 | > 100 | > 100 |
